# Like-named read-outs stand apart in the source and are kept apart here.
# Assays:
# [1] = system: iCell endothelial cells (human iPSC-derived ECs); test: Tube formation (tubulogenesis) assay in iCell endothelial cells, 18 h; type: cell-based; details: Homo sapiens, Endothelial cell, 18 hr; for activity at 0.1 µM: 0.10 µM
# Summary of the method: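 Tube formation was measured by calcein AM imaging after overnight compound exposure (37°C, 0.5% DMSO vehicle) of human iPSC-derived ECs, 7,500/well, on reduced-growth-factor Geltrex in starvation medium. Vehicle-normalized data fitted to four-parameter logistic; POD set at one vehicle SD; without response, 100 μM taken as NOAEL.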
# [2] = system: iCell endothelial cells (human iPSC-derived ECs); test: High-content imaging cytotoxicity in iCell endothelial cells, 24 h; type: cell-based; details: Homo sapiens, Endothelial cell, 24 hr; for viability at 0.1 µM / activity at 0.1 µM: 0.10 µM
# Summary of the method: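 Readouts were vehicle-normalised and fitted to a four-parameter logistic model. POD was set at one SD beyond 0.5% DMSO control means, and 100 µM was assigned when no response was seen. Cells were monolayers of iCell endothelial cells imaged after 24 h compound exposure using nuclear, mitochondrial and calcein dyes.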
# [3] = iPSC-EC tube formation, 0.00 µM control = 100.00, read-out: endo.mtl.18hr
# [4] = iPSC-EC tube formation, 0.00 µM control = 100.00, read-out: endo.tlps.18hr
# [5] = iPSC-EC tube formation, 0.00 µM control = 100.00, read-out: endo.tta.18hr
# [6] = iPSC-EC tube formation, 0.00 µM control = 100.00, read-out: endo.ttl.18hr
# [7] = iPSC-EC, 0.00 µM control = 100.00, read-out: endo.cyto.24hr
# [8] = iPSC-EC, 0.00 µM control = 100.00, read-out: endo.mito.24hr
# [9] = iPSC-EC, 0.00 µM control = 100.00, read-out: endo.mitoint.24hr
# [10] = iPSC-EC, 0.00 µM control = 100.00, read-out: endo.nma.24hr
# [11] = iPSC-EC, 0.00 µM control = 100.00, read-out: endo.tc.24hrs
smiles,measurement,setting,value
Oc1cccc(-c2ccc(Cl)cc2)c1 [3'-OH PCB3],activity at 0.01 µM,[1]; [3],98%
same,activity at 0.01 µM,[1]; [4],99.3%
same,activity at 0.01 µM,[1]; [5],119%
same,activity at 0.01 µM,[1]; [6],114%
same,activity at 0.1 µM,[1]; [3],85.4%
same,activity at 0.1 µM,[1]; [4],107%
same,activity at 0.1 µM,[1]; [5],73%
same,activity at 0.1 µM,[1]; [6],72.3%
same,activity at 1 µM,[1]; [3],88.6%
same,activity at 1 µM,[1]; [4],76.7%
same,activity at 1 µM,[1]; [5],71.5%
same,activity at 1 µM,[1]; [6],69.4%
same,activity at 10 µM,[1]; [3],59%
same,activity at 10 µM,[1]; [4],33.8%
same,activity at 10 µM,[1]; [5],39.4%
same,activity at 10 µM,[1]; [6],39.8%
same,activity at 100 µM,[1]; [3],46%
same,activity at 100 µM,[1]; [4],11.7%
same,activity at 100 µM,[1]; [5],1.49%
same,activity at 100 µM,[1]; [6],2.14%
same,minimal effective concentration,"[1]; iPSC-EC tube formation, top concentration 100.00 µM, read-out: endo.mtl.18hr POD",0.36 µM
same,minimal effective concentration,"[1]; iPSC-EC tube formation, top concentration 100.00 µM, read-out: endo.tlps.18hr POD",1.03 µM
same,minimal effective concentration,"[1]; iPSC-EC tube formation, top concentration 100.00 µM, read-out: endo.tta.18hr POD",0.49 µM
same,minimal effective concentration,"[1]; iPSC-EC tube formation, top concentration 100.00 µM, read-out: endo.ttl.18hr POD",0.51 µM
same,viability at 0.01 µM,[2]; [7],93.4%
same,activity at 0.01 µM,[2]; [8],93.6%
same,activity at 0.01 µM,[2]; [9],123%
same,activity at 0.01 µM,[2]; [10],101%
same,viability at 0.01 µM,[2]; [11],93.4%
same,viability at 0.1 µM,[2]; [7],99.8%
same,activity at 0.1 µM,[2]; [8],100%
same,activity at 0.1 µM,[2]; [9],111%
same,activity at 0.1 µM,[2]; [10],97.6%
same,viability at 0.1 µM,[2]; [11],99.8%
same,viability at 1 µM,[2]; [7],98.9%
same,activity at 1 µM,[2]; [8],99.4%
same,activity at 1 µM,[2]; [9],118%
same,activity at 1 µM,[2]; [10],97.4%
same,viability at 1 µM,[2]; [11],98.9%
same,viability at 10 µM,[2]; [7],102%
same,activity at 10 µM,[2]; [8],102%
same,activity at 10 µM,[2]; [9],129%
same,activity at 10 µM,[2]; [10],98.3%
same,viability at 10 µM,[2]; [11],102%
same,viability at 100 µM,[2]; [7],45.2%
same,activity at 100 µM,[2]; [8],58%
same,activity at 100 µM,[2]; [9],98.4%
same,activity at 100 µM,[2]; [10],90.1%
same,viability at 100 µM,[2]; [11],79.2%
same,minimal effective concentration,"[2]; iPSC-EC, top concentration 100.00 µM, read-out: endo.cyto.24hr POD",45.8 µM
same,minimal effective concentration,"[2]; iPSC-EC, top concentration 100.00 µM, read-out: endo.mito.24hr POD",45.8 µM
same,minimal effective concentration,"[2]; iPSC-EC, top concentration 100.00 µM, read-out: endo.mitoint.24hr POD",100 µM
same,minimal effective concentration,"[2]; iPSC-EC, top concentration 100.00 µM, read-out: endo.nma.24hr POD",9.75 µM
same,minimal effective concentration,"[2]; iPSC-EC, top concentration 100.00 µM, read-out: endo.tc.24hrs POD",53.2 µM
"COc1ccc(-c2cccc(Cl)c2)cc1Cl [4-OMe-PCB 11, 4-methoxy-3,3′-dichlorobiphenyl]",minimal effective concentration,"[1]; endothelial cells (endo), tube formation mtl, read-out: POD endo.mtl.18hr",100 µM
same,minimal effective concentration,"[1]; endothelial cells (endo), tube formation tlps, read-out: POD endo.tlps.18hr",28.4 µM
same,minimal effective concentration,"[1]; endothelial cells (endo), tube formation tta, read-out: POD endo.tta.18hr",0.00169 µM
same,minimal effective concentration,"[1]; endothelial cells (endo), tube formation ttl, read-out: POD endo.ttl.18hr",0.00197 µM
same,minimal effective concentration,"[2]; endothelial cells (endo), cyto, read-out: POD endo.cyto.24hr",100 µM
same,minimal effective concentration,"[2]; endothelial cells (endo), mito, read-out: POD endo.mito.24hr",100 µM
same,minimal effective concentration,"[2]; endothelial cells (endo), mitoint, read-out: POD endo.mitoint.24hr",100 µM
same,minimal effective concentration,"[2]; endothelial cells (endo), nma, read-out: POD endo.nma.24hr",100 µM
same,minimal effective concentration,"[2]; endothelial cells (endo), tc, read-out: POD endo.tc.24hr",100 µM

# Source: PMC7377239, “Cardiovascular Effects of Polychlorinated Biphenyls and Their Major Metabolites” (Environmental Health Perspectives, 2020)
